Measurements as given in US20030194376A1, “Ultrasound contrast agents and methods of making and using them” (Bracco International B.V., priority 1990, published 2003).

Experiment: Water solubility of the filling gas (Bunsen coefficient, Gas Encyclopaedia)
Assay type: physicochemical
Settings: gas solubility divided by square root of molecular weight
Excerpt: In the Tables, the water solubility factors have also been taken from the aforecited Gas Encyclopaedia from “L'Air Liquide”, Elsevier Publisher (1976).

| Compound | S gas {square root} Mw |
| --- | --- |
| FC(F)(F)F [CF4] | .0004 |
| FC(F)(F)Br [CBrF3] | .0004 |
| [Kr] [Kr, Krypton] | .006 |
